Patent publication US11026972B2, “Methods for generating macrophages with enhanced cancer phagocytosis” (Georgia State University Research Foundation, Inc., priority 2016, dated 2021)

Legend:
Type in all cases: cell-based, mouse
[1] = system: SIRPα; assay: SIRPα immunoprecipitation and WB detection of SIRPα ITIM phosphorylation and SHP-1 association; conditions: WT macrophages after LPS or IL-17 treatment
Protocol: FIGS. 4A-4E include data related to our experiments on macrophage phagocytic plasticity. FIG. 4A is a panel of illustrative line graphs showing that IL-10 inhibits macrophage phagocytosis toward “self.” PEMs were treated with LPS and activating cytokines along with various concentrations of IL-10 before testing their ability to phagocytose RBCs. FIG. 4B illustrates the phagocytic plasticity of WT red pulp macrophages. […] Treatments of cultured macrophages with LPS and IL-17 re-elicited their phagocytosis toward RBCs. […] Error bars are ±SEM. ***P<0.001 vs. freshly isolated splenic macrophages. FIG. 4D includes microscopic images of RBC phagocytosis by LPS- and IL-17-treated splenic macrophages. […] WT PEMs treated with LPS or IL-17 were further treated with Cd47^+ RBCs or Cd47-AP (10 min, 37° C.) followed by cell lysis, SIRPα immunoprecipitation, and WB detection of SIRPα phosphorylation (SIRPα^pY) and SHP-1 association. Data presented in each panel represent at least three independent experiments with n≥4, if applicable.
FIGS. 5A-5H include data related to our experiments on the role of Syk in phagocytic activation. […] PEMs were treated with LPS and cytokines in the presence of various inhibitors. After washing, inhibitor-free macrophages were tested for phagocytosis toward RBCs. […] PEMs treated with LPS and activating cytokines, or together with IL-10, were tested for total Syk and phosphorylated Syk (Syk^pY, specific at Y519/520). FIG. 5D describes PMA-induced macrophages phagocytosis toward RBCs. WT and SIRPα^−/− PEMs were treated with PMA (37° C., 30 min) before testing phagocytosis toward RBCs. FIG. 5E is a schematic depiction of PKC-Syk-mediated macrophage phagocytic activation toward self. […] Left: Inhibition of Syk by piceatannol and R406 prevented PMA-induced phagocytic activation. […] Error bars are ±SEM. ***P<0.001 vs. the respective controls. […] LPS-treated WT PEMs were further briefly treated with pervanadate before testing for phagocytosis toward RBCs. Error bars are ±SEM. ***P<0.001 vs. the respective controls. […]

[2] = system: Syk; assay: Syk phosphorylation at Y519/520 in PEMs
Protocol: FIGS. 5A-5H include data related to our experiments on the role of Syk in phagocytic activation. […] PEMs were treated with LPS and cytokines in the presence of various inhibitors. After washing, inhibitor-free macrophages were tested for phagocytosis toward RBCs. […] PEMs treated with LPS and activating cytokines, or together with IL-10, were tested for total Syk and phosphorylated Syk (Syk^pY, specific at Y519/520). FIG. 5D describes PMA-induced macrophages phagocytosis toward RBCs. WT and SIRPα^−/− PEMs were treated with PMA (37° C., 30 min) before testing phagocytosis toward RBCs. FIG. 5E is a schematic depiction of PKC-Syk-mediated macrophage phagocytic activation toward self. […] Left: Inhibition of Syk by piceatannol and R406 prevented PMA-induced phagocytic activation. […] Error bars are ±SEM. ***P<0.001 vs. the respective controls. […] LPS-treated WT PEMs were further briefly treated with pervanadate before testing for phagocytosis toward RBCs. Error bars are ±SEM. ***P<0.001 vs. the respective controls. […] Data presented in each panel represent at least three independent experiments with n≥4, if applicable.
Multiple pharmacological inhibitors were tested for their effects on LPS and cytokine-induced activation of macrophage phagocytosis toward self. […] For example, inhibition of JAKs blocked IL-6 and IL-17, but not LPS and TNFα, for activation of PEM phagocytosis. […]

[3] = system: splenic macrophages, PEMs and BMDMs; assay: Ex vivo macrophage phagocytosis toward RBCs and other self-cells after activation; conditions: for conversion to potent phagocytes toward self: PEMs and BMDMs from WT and mutant mice; for phagocytosis toward CD47^− RBCs of culture-retarded WT spleen macrophages: after 2 days of culturing; for phagocytosis toward RBCs: splenic macrophages from SIRPα^−/− or CD47^−/− mice
Method in brief: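 Mouse splenic or peritoneal macrophages (2 h adherent selection) or BMDMs (M-CSF ~10 ng/ml, 5-6 days) were co-incubated 30 min at 37 °C with CFSE-labelled RBCs (1:5-10) or other cells (1:1-2). Uptake was scored by fluorescence microscopy and/or FACS with anti-F4/80 or anti-CD11b macrophage labelling.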

[4] = system: cell surface LRP1 and CRT on PEMs; assay: Macrophage cell surface CRT and LRP1 by FACS; conditions: after treatment with phagocytic activation factor
Protocol: FIGS. 6A-6D include data related to our investigation of possible phagocytic receptors on macrophages for phagocytosing healthy self-cells. […] PEM (unstimulated) phagocytosis toward apoptotic B16 cells was tested in the presence of same antibodies and RAP as in A. Error bars are ±SEM. ***P<0.001 vs. phagocytosis in the presence of control IgG. […] PEMs, with or without (ctl.) treatment with LPS, IL-17, IL-6, or PMA, were labeled for cell surface LRP1 and CRT followed by FACS. Increased and decreased expressions were marked by arrows. […] Activated PEM phagocytosis toward RBCs was tested in the presence of antibodies against SR-A, Fc receptor Cd16/32 (10 μg/mL of each), inhibitors against SR-B (BLT1, 5 μM), dectin (laminarin, 100 μg/mL), complement (heparin, 40 U/mL), and antibody against Cd11b (10 μg/mL). Error bars are ±SEM. ***P<0.001 vs. the respective control without inhibition. Data presented in each panel represent at least three independent experiments with n≥4, if applicable.

lipopolysaccharide [LPS]
SIRPα ITIM phosphorylation and SHP-1 association [1]: a level of SIRPα ITIM phosphorylation and SHP-1 association even in the absence of extracellular CD47 ligation
Syk phosphorylation (Syk^PY, Y519/520) [2]: increases in Syk^PY
conversion to potent phagocytes toward self [3]: converted all PEMs and BMDMs
phagocytosis of other cell types ([3]; activated macrophages, CD47-SIRPα-controllable manner): capable of phagocytizing murine splenocytes, B16 melanoma cells, and EL4 lymphoblasts
phagocytosis toward CD47^− RBCs of culture-retarded WT spleen macrophages [3]: dramatically rekindled
phagocytosis toward RBCs [3]: rapidly induced their phagocytosis toward RBCs
cell surface CRT or LRP1 on PEMs [4]: induced an increase in CRT

B1: IL-17: recombinant murine cytokine interleukin IL-17 (also known as IL-17A), PeproTech (protein, UniProt Q62386 26-158, looked up)
Interleukin-17A: AAIIPQSSACPNTEAKDFLQNVKVNLKVFNSLGAKVSSRRPSDYLNRSTSPWTLHRNEDPDRYPSVIWEAQCRHQRCVNAEGKLDHHMNSVLIQQEILVLKREPESCPFTFRVEKMLVGVGCTCVASIVRQAA
SIRPα ITIM phosphorylation and SHP-1 association [1]: a level of SIRPα ITIM phosphorylation and SHP-1 association even in the absence of extracellular CD47 ligation
conversion to potent phagocytes toward self [3]: converted all PEMs and BMDMs
phagocytosis toward CD47^− RBCs of culture-retarded WT spleen macrophages [3]: dramatically rekindled
phagocytosis toward RBCs [3]: rapidly induced their phagocytosis toward RBCs
